{"source": "paper PMC7068720", "about": "“Rational Design of Mechanism-Based Inhibitors and Activity-Based Probes for the Identification of Retaining α-L-Arabinofuranosidases” (Journal of the American Chemical Society, 2020)", "molecules": {"B1": {"name": "AkAbfB (GH54) (Aspergillus luchuensis IFO 4308) (protein)", "chain": "AGPCDIYEAGDTPCVAAHSTTRALYSSFSGALYQLQRGSDDTTTTISPLTAGGIADASAQDTFCANTTCLITIIYDQSGNGNHLTQAPPGGFDGPDTDGYDNLASAIGAPVTLNGQKAYGVFMSPGTGYRNNEATGTATGDEAEGMYAVLDGTHYNDACCFDYGNAETSSTDTGAGHMEAIYLGNSTTWGYGAGDGPWIMVDMENNLFSGADEGYNSGDPSISYRFVTAAVKGGADKWAIRGANAASGSLSTYYSGARPDYSGYNPMSKEGAIILGIGGDNSNGAQGTFYEGVMTSGYPSDDTENSVQENIVAAKYVVGSLVSGPSFTSGEVVSLRVTTPGYTTRYIAHTDTTVNTQVVDDDSSTTLKEEASWTVVTGLANSQCFSFESVDTPGSYIRHYNFELLLNANDGTKQFHEDATFCPQAALNGEGTSLRSWSYPTRYFRHYENVLYAASNGGVQTFDSKTSFNNDVSFEIETAFAS", "notes": "pPICZalpha, no purification tag, secreted from Pichia pastoris X-33; EndoH-deglycosylated for MS and crystallography"}, "B2": {"name": "AnAbfA (GH51) (Aspergillus niger CBS 513.88) (protein)", "chain": "ISLKVSTQGGNSSSPILYGFMFEDINHSGDGGIYGQMLQNPGLQGTAPNLTAWAAVGDATIAIDGDSPLTSAIPSTIKLNIADDATGAVGLTNEGYWGIPVDGSEFHSSFWIKGDYSGDITVRLVGNYTGTEYGSTTITHTSTADNFTQASVKFPTTKAPDGNVLYELTVDGSVAAGSSLNFGYLTLFGETYKSRENGLKPQLANVLDDMKGSFLRFPGGNNLEGNSAENRWKWNETIGDLWDRPGREGTWTYYNTDGLGLHEYFYWCEDLGLVPVLGVWDGFALESGGNTPLTGDALTPYIDDVLNELEYILGDTSTTYGAWRAANGQEEPWNLTMVEIGNEDMLGGGCESYAERFTAFYDAIHAAYPDLILIASTSEADCLPESMPEGSWVDYHDYSTPDGLVGQFNYFDNLNRSVPYFIGEYSRWEIDWPNMKGSVAEAVFMIGFERNSDVVKMAAYAPLLQLINSTQWTPDLIGYTQSPGDIFLSTSYYVQEMFSRNRGDTIKEVTSDSDFGPLYWVASSAGDSYYMKLANYGSETQDLTVSIPGTSTGKLTVLADSDPDAYNSDTQTLVTPSESTVQASNGTFTFSLPAWAVAVLAAN", "notes": "synthetic gene in pPICZalpha (vector fragment amplified from untagged AkAbfB plasmid), secreted from Pichia pastoris X-33"}}, "key": {"[1]": {"molecular_target": "T1, AkAbfB (GH54) (Aspergillus luchuensis, UniProt Q8NK89)", "T1 construct": "gene abfB; pPICZalpha, no purification tag, secreted from Pichia pastoris X-33; EndoH-deglycosylated for MS and crystallography", "T1 sequence (Q8NK89 18-499)": "B1 chain", "assay": "continuous fluorescence assay, irreversible inhibition kinetics", "assay_type": "biochemical", "from_the_text": "continuous fluorescence assay, irreversible inhibition kinetics on AkAbfB (GH54)"}, "[2]": {"molecular_target": "T2, AnAbfA (GH51) (Aspergillus niger, UniProt A2Q7E0)", "T2 construct": "gene abfA; synthetic gene in pPICZalpha (vector fragment amplified from untagged AkAbfB plasmid), secreted from Pichia pastoris X-33", "T2 sequence (A2Q7E0 26-628)": "B2 chain", "assay": "continuous fluorescence assay, irreversible inhibition kinetics", "assay_type": "biochemical", "from_the_text": "continuous fluorescence assay, irreversible inhibition kinetics on AnAbfA (GH51)"}, "[3]": {"molecular_target": "T3, GsGH51 (Geobacillus stearothermophilus abfA) (Geobacillus stearothermophilus, UniProt Q9XBQ3)", "T3 construct": "E. coli BL21(DE3) Gold, pET28a(+), N-terminal TEV-cleavable 6xHis tag removed", "T3 sequence (Q9XBQ3 whole entry)": "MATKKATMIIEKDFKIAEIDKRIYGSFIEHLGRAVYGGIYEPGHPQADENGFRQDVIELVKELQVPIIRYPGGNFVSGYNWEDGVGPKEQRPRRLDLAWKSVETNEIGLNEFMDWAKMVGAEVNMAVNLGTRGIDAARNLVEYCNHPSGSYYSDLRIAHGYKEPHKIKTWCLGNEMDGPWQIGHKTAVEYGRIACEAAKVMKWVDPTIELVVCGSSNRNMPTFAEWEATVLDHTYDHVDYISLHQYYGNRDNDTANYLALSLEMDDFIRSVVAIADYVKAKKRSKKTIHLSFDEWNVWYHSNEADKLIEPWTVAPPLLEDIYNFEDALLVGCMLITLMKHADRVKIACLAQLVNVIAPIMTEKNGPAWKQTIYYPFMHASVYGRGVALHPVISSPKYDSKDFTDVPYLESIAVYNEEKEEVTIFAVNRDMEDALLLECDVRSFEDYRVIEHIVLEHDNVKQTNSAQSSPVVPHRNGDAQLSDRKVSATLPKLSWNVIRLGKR", "assay": "X-ray crystallography ([…] Å) and intact MS", "assay_type": "binding", "settings": "covalent; nucleophile E294"}, "[4]": {"molecular_target": "T4, AnAbfB (AbfB, GH54) (Aspergillus niger, UniProt A2R511)", "T4 construct": "native secreted glycoprotein in arabinan-grown secretome, ~65 kDa on gel (~60 kDa after PNGaseF)", "T4 sequence (A2R511 19-499)": "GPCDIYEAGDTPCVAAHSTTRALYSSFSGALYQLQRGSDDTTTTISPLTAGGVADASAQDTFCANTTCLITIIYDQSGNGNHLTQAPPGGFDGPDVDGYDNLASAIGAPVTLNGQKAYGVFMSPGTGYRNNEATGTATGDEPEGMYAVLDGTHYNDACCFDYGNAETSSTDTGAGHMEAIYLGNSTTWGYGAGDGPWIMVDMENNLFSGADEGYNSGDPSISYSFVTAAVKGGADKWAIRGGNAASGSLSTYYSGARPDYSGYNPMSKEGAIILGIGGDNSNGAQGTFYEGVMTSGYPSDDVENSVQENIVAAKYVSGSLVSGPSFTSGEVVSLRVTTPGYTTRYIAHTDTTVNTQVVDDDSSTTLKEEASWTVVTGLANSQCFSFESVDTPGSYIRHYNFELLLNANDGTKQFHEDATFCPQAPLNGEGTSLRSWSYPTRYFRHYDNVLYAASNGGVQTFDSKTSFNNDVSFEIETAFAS", "assay": "competition with ABP […] pull-down, LC-MS/MS", "assay_type": "biochemical", "settings": "covalent; 0.1 mM inhibitor 1 h, pH 6.5, 37 °C, then ABP 5"}, "[5]": {"molecular_target": "T5, AbfE (GH51) (Aspergillus niger, UniProt A2QT56)", "T5 construct": "gene An09g00880; native secreted protein in arabinan-grown secretome", "T5 sequence (A2QT56 32-646)": "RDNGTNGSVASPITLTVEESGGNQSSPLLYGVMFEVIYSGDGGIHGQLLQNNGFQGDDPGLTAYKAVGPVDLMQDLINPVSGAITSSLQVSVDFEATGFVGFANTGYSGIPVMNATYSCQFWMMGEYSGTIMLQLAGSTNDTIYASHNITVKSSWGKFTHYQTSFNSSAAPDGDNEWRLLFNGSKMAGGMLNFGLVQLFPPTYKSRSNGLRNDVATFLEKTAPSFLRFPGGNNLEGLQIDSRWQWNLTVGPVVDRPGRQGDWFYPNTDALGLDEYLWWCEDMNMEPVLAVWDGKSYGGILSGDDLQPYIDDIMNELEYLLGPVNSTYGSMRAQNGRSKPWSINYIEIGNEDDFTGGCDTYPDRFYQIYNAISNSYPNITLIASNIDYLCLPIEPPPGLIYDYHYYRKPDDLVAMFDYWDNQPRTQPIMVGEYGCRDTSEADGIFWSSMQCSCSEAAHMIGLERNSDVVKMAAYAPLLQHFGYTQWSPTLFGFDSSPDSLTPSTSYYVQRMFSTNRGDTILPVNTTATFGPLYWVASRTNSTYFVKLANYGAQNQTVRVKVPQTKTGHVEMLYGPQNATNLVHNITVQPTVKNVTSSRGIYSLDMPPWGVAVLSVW", "assay": "competition with ABP […] pull-down, LC-MS/MS", "assay_type": "biochemical", "settings": "covalent; 0.1 mM inhibitor 1 h, pH 6.5, 37 °C, then ABP 5"}, "[6]": {"substrate": "Cc1cc(=O)oc2cc(O[C@@H]3O[C@@H](CO)[C@H](O)[C@H]3O)ccc12", "assay": "continuous fluorescence assay, Michaelis-Menten", "assay_type": "biochemical, Aspergillus luchuensis", "settings": "4-500 μM substrate, 50 mM sodium phosphate pH 7.0, 25 °C"}, "[7]": {"substrate": "Cc1cc(=O)oc2cc(O[C@@H]3O[C@@H](CO)[C@H](O)[C@H]3O)ccc12", "assay": "continuous fluorescence assay, Michaelis-Menten", "assay_type": "biochemical, Aspergillus niger", "settings": "4-500 μM substrate, 50 mM sodium phosphate pH 7.0, 25 °C"}, "[8]": {"settings": "4MU-Araf 100 μM, 50 mM sodium phosphate pH 7.0, 25 °C; up to 0.25 mM inhibitor"}, "[9]": {"settings": "covalent; mechanism-based; 4MU-Araf 100 μM, 50 mM sodium phosphate pH 7.0, 25 °C; read-out: KI"}, "[10]": {"settings": "covalent; mechanism-based; 4MU-Araf 100 μM, 50 mM sodium phosphate pH 7.0, 25 °C"}, "[11]": {"settings": "read-out: KI; covalent; mechanism-based; 4MU-Araf 100 μM, 50 mM sodium phosphate pH 7.0, 25 °C"}}, "note": "Like-named read-outs stand apart in the source and are kept apart here.", "data": [{"molecule": "OC[C@H]1[C@H](O)[C@@H](O)[C@@H]2O[C@H]12", "note": "[compound 1]", "values": [{"measurement": "kinact/KI", "setting": "[1]; [8]", "result": "< 0.1", "unit": "M⁻¹ s⁻¹"}, {"measurement": "kinact/KI", "setting": "[2]; [8]", "result": "< 0.1", "unit": "M⁻¹ s⁻¹"}]}, {"molecule": "OC[C@H]1[C@H](O)[C@@H](O)[C@@H]2N[C@H]12", "note": "[compound 2, inhibitor 2]", "values": [{"measurement": "X-ray crystallography (1.40 Å) and intact MS", "setting": "[3]", "result": "full occupancy covalent complex between E294, the known catalytic nucleophile, and each inhibitor"}, {"measurement": "competition with ABP 5 pull-down, LC-MS/MS", "setting": "[4]", "result": "significantly reduced signal for peptides from AbfA, AbfB, and AbfE"}, {"measurement": "competition with ABP 5 pull-down, LC-MS/MS", "setting": "[5]", "result": "significantly reduced signal for peptides from AbfA, AbfB, and AbfE"}, {"measurement": "KI (inactivation)", "setting": "[1]; [9]", "result": "320 ± 50", "unit": "µM"}, {"measurement": "KI (inactivation)", "setting": "[2]; [9]", "result": "140 ± 20", "unit": "µM"}]}, {"molecule": "O=S1(=O)O[C@@H]2[C@@H](CO)[C@H](O)[C@@H](O)[C@@H]2O1", "note": "[compound 6, inhibitor 6]", "values": [{"measurement": "X-ray crystallography (1.40 Å) and intact MS", "setting": "[3]", "result": "full occupancy covalent complex between E294, the known catalytic nucleophile, and each inhibitor"}, {"measurement": "kinact/KI", "setting": "[1]; [10]", "result": "240 ± 30", "unit": "M⁻¹ s⁻¹"}, {"measurement": "kinact/KI", "setting": "[2]; [10]", "result": "160 ± 20", "unit": "M⁻¹ s⁻¹"}]}, {"molecule": "NCCCCCCCCN1[C@@H]2[C@@H](CO)[C@H](O)[C@@H](O)[C@@H]21", "note": "(stereo partly shown) [compound 3, inhibitor 3]", "values": [{"measurement": "KI (inactivation)", "setting": "[1]; [11]", "result": "320 ± 40", "unit": "µM"}, {"measurement": "KI (inactivation)", "setting": "[2]; [11]", "result": "210 ± 30", "unit": "µM"}]}, {"molecule": "B1", "values": [{"measurement": "Km", "setting": "[6]", "result": "390 ± 30", "unit": "µM"}, {"measurement": "kcat", "setting": "[6]", "result": "3.5 ± 0.167", "unit": "s⁻¹"}]}, {"molecule": "B2", "values": [{"measurement": "Km", "setting": "[7]", "result": "240 ± 20", "unit": "µM"}, {"measurement": "kcat", "setting": "[7]", "result": "2.17 ± 0.167", "unit": "s⁻¹"}]}]}
